Patent US20250352524A1, “PREVENTION OF METASTATIC OUTGROWTH USING TEAD INHIBITORS” (Georgetown University, priority 2024, published 2025)

Tests used:
DCIS cells = assay: Real Time Cell Analysis, proliferation of DCIS cells; format: cell-based, human; conditions: VT107 at varying concentrations, cell index
Protocol: To further examine the effect of TEAD inhibition on the myeloid compartment of the lung, a human breast cancer cell line MCFDCIS (DCIS) that metastasizes to the lungs when a small population of cells (DCISA4) expresses an isoform of the transcription coactivator amplified in breast cancer 1 (Sharif et al., 2021), was used. DCIS:DCISA4 cells were injected into the mammary fat pad of NOD/SCID mice. Mice were treated daily with VT107. Tumors were surgically removed at week 4 and lungs were monitored for metastases for another 4 weeks without receiving additional treatment (FIG. 13, Panel B). Mouse body weights were measured weekly throughout the course of treatment (FIG. 13, Panel C). […] All mice in the vehicle treated group developed lung metastases as previously reported (Sharif et al., 2021). […] RNA was extracted from lung tissues to further examine the host stroma affected by VT107. RNA sequencing reads from the lungs were aligned to the mouse transcriptome to shed light on the host tissue changes in response to treatment in the presence of seeded cancer cells. […]
Cell analysis was done using E-plates from xCELLigence, (Agilent, #5469830001) according to the manufacturer's protocol. […] Cell index was measured by changes in electric impedance at 15 min intervals. […]

[1] = system: peritoneal macrophages and T-cells; assay: Cytokine array, pretreated peritoneal macrophages mixed with T-cells; format: cell-based, mouse
Source text: To investigate whether the effect of iTEAD treatment on macrophages can enhance their crosstalk with T-cells in the lung microenvironment, peritoneal macrophages+/−iTEAD were first isolated and characterized as a model of resident macrophages for ex vivo experiments (FIG. 14, Panel A). It was observed that treatment with VT107 decreased gene expression of M2-like and fibrosis regulators, Aldh1a1 and Cc117 (Chen et al., 2020), as well as TEAD4 and its downstream target gene Ankrd1. […] The iTEAD pretreated peritoneal macrophages and untreated T-cells isolated from the spleen of tumor naïve mice (FIG. 14, Panel A) were then mixed for 5 hours before collecting the conditioned media for analysis. […] Next, these immune cell mixes were added to 4T1 spheres that were embedded into matrix. […] This effect was reversed by an IL12 neutralizing antibody. No change in cleaved caspase-3 in 4T1 cells in the presence of VT107-treated T-cells or macrophages alone, was detected at 24 hours (FIG. 14, Panels C and D). 4T1 cells were then plated and allowed to attach on electrode-coated arrays to monitor cancer cell viability before the addition of macrophages+/−iTEAD and T-cells. […] This reversal of T-cell cytotoxicity by IL12 antibodies was not observed in VT107-treated T-cells in the absence of macrophages (FIG. 15, Panel E) indicating a critical role for IL12 in the crosstalk between macrophages and T-cells.
Cells were grown in their recommended cell culture media and treated with […] VT107 for 24 or 72 hours. Conditioned media was collected and passed through a 0.2 micron PES filter then analyzed on a RayBio® Mouse Cytokine Array (#AAM-TCR-1) according to the manufacture's protocol. The array includes two spots for each cytokine. The luminescence signal was normalized to the positive control on each membrane, then to the vehicle treatment signal of each cytokine.

Jurkat cells = assay: Real Time Cell Analysis, cytotoxicity of Jurkat cells towards 4T1 cells; format: cell-based, human; conditions: 1 μM VT107 for 24 hours
Protocol: The hippo pathway has been implicated in T-cell development and function (Du et al., 2014; Ueda et al., 2012). For example, YAP expression is essential for tumor immune suppression by Treg cells that attenuates CD8 T-cell immunity (Geng et al., 2017; Ni et al., 2018; Lebid et al., 2020). […] To investigate whether VT107 directly affected T-cells, T-cells treated with VT107 were co-cultured with 4T1 cells in 2D for 72 hours. […] To further confirm T-cell activation upon TEAD activity reduction, we used Jurkat cells, a CD4 positive human lymphoma cell line (Schneider et al., 1977). […] However, here we show the specific effect of TEAD reduction on granzyme gene expression and degranulation that result in the killing of cancer cells.
Cell analysis was done using E-plates from xCELLigence, (Agilent, #5469830001) according to the manufacturer's protocol. For cell cytotoxicity, cancer cells (10,000-25,000 cells per well) were seeded and allowed to attach for 1-2 hours prior to the addition of immune cells and/or drug treatments. For cell proliferation, cancer cells were seeded at 5,000-10,000 cells per well with incremental doses of drug treatments or DMSO as a vehicle control. Cell index was measured by changes in electric impedance at 15 min intervals. TEAD inhibitors were obtained from Vivace therapeutics. […]

[2] = macrophages pretreated 24 hrs with 1 μM VT107, mixed with untreated T-cells 5 hours
[3] = treated overnight with 1 μM VT107

Substance: VT107
- proliferation of DCIS / breast cancer cells in vitro (DCIS cells): no significant change
- proliferation of DCIS / breast cancer cells in vitro (DCIS cells; listed as iTEAD): no effect
- IL6 level in the cell mix [1, 2]: significantly increased
- IL12 level in the cell mix [1, 2]: significantly increased
- IL4 in T-cells [1, 3]: slightly increased
- IL12 or IL6 levels in macrophages or T-cells alone [1, 3]: No significant change
- Jurkat cytotoxicity towards co-cultured 4T1 cells (Jurkat cells): enhanced cytotoxicity
